Laboratory results published in patent US20230014181A1, “CULTURE SYSTEM AND METHODS FOR IMPROVED MODELING OF NEUROLOGICAL CONDITIONS” (Genentech, Inc., priority 2021, published 2023).
Counter-ions that a name gives are not always drawn. Like-named read-outs stand apart in the source and are kept apart here.

System: human iPSC neurons, astrocytes and microglia treated with 5 μM sAβ42s
Experiment: Focused small molecule screen, triple culture (neuron, astrocyte, microglia), rescue from sAβ42s toxicity
Assay type: cell-based
Conditions: for percent rescue from sAβ42s toxicity at 50 µM / percent rescue from sAβ42s toxicity at 3.13 µM / percent rescue from sAβ42s toxicity at 12.5 µM / percent rescue from sAβ42s toxicity at 0.78 µM: Homo sapiens, iPSC
Procedure: FIGS. 11A-11D show synapse % rescue versus MAP2% rescue (FIGS. 11A-11B) and beta III tubulin % rescue versus MAP2% rescue (FIGS. 11C-11D), in neurons and astrocytes (FIGS. 11A and 11C) or neurons, astrocytes, and microglia (FIGS. 11B and 11D) treated with 5 μM sAβ42s and small molecules from a focused screen of known neuroprotective agents at multiple concentrations (50 μM, 25 μM, 12.5 μM and 6.25 μM (double culture), 50 μM, 12.5 μM, 3.1 μM and 0.78 μM (triple culture). Small molecules that prevented toxicity in dendrites (MAP2), synapses (Synapsin 1/2), cell count (CUX2), or axons ([…]) at or above 30% were considered hits (red dotted line).
Frozen cells were thawed and immediately seeded at a density of 8,000 cells/well of a 384-well plate onto 8-week old neuron-astrocyte co-culture in Microglia media (BrainPhys™ neuronal media (Stem Cell Technologies) supplemented with 1× B27 with vitamin A, 1×N2 Plus Media Supplement (R&D Systems), 20 ng/mL BDNF, 20 ng/mL GDNF, 1 mM creatine, 200 nM L-ascorbic acid, 1 μg/mL mouse laminin, 0.5 mM GlutaMAX™ (Thermofisher), 0.5× penicillin-streptomycin, 1× normocin, 5 ng/mL TGF-β, 100 ng/mL human IL-34, 1.5 μg/mL cholesterol, 1 ng/mL gondoic acid, 100 ng/mL oleic acid, 460 μM thioglycerol, 1× insulin-transferrin-selenium, 25 ng/mL rhM-CSF, 5.4 μg/mL human insulin solution).
In double (neuron, astrocyte) and triple (neuron, astrocyte, microglia) cultures, each small molecule listed in Table 1 was tested in the AD model paradigm at up to four concentrations. Molecules that characterized ≥30% rescue in any of the four measurements of dendrites area (MAP2), synapses count (synapsin 1/2), or cell count (CUX2), or axon area (Beta III Tubulin; “BT3”)) were classified as hits (FIGS. 11A-11D, Table 2, and Table 3).

[1] = 50.00 μM compound, read-out: % B3T rescue
[2] = 50.00 μM compound, read-out: % MAP2 rescue
[3] = 50.00 μM compound, read-out: % Synapse rescue
[4] = 3.13 μM compound, read-out: % B3T rescue
[5] = 3.13 μM compound, read-out: % MAP2 rescue
[6] = 3.13 μM compound, read-out: % Synapse rescue
[7] = 12.50 μM compound, read-out: % B3T rescue
[8] = 12.50 μM compound, read-out: % MAP2 rescue
[9] = 12.50 μM compound, read-out: % Synapse rescue
[10] = 0.78 μM compound, read-out: % B3T rescue
[11] = 0.78 μM compound, read-out: % MAP2 rescue
[12] = 0.78 μM compound, read-out: % Synapse rescue

Molecule | % B3T rescue (3.13 μM compound) | % MAP2 rescue (3.13 μM compound) | % Synapse rescue (3.13 μM compound) | % B3T rescue (12.50 μM compound) | % MAP2 rescue (12.50 μM compound) | % Synapse rescue (12.50 μM compound) | % B3T rescue (50.00 μM compound) | % MAP2 rescue (50.00 μM compound) | % Synapse rescue (50.00 μM compound) | further results
C=C(c1ccc(C(=O)O)c(F)c1)c1cc2c(cc1C)C(C)(C)CCC2(C)C [Fluorobexarotene] | 50% | 43% | 34% | 33% | 40% | 33% | – | – | – | –
O=C1Nc2ccccc2/C1=C1/Nc2ccccc2/C1=N\O [Indinibin-3′-monoxime] | 31% | 6% | 9% | 74% | 37% | 44% | 49% | 23% | 34% | –
Cc1cc(C(=O)CN2CCCC2)c(C)n1-c1ccc(F)cc1 [IU1] | – | – | – | 41% | 32% | 23% | – | – | – | –
O=C(COc1ccc(Cl)cc1)NC1CCC(NC(=O)COc2ccc(Cl)cc2)CC1 (stereo not drawn) [ISR Inhibitor, ISRIB] | – | – | – | – | – | – | 22% | 31% | 21% | –
C/C=C1\C(=O)C[C@H]2[C@@H]3CCC4=CC(=O)CC[C@]4(C)[C@H]3CC[C@]12C [Guggulsterone] | – | – | – | – | – | – | – | – | – | percent rescue from sAβ42s toxicity at 50 µM [1]: 36%; percent rescue from sAβ42s toxicity at 50 µM [2]: 19%; percent rescue from sAβ42s toxicity at 50 µM [3]: 17%
Cn1sc(=O)n(Cc2ccccc2)c1=O [TDZD-8] | – | – | – | – | – | – | 54% | −29% | −8% | –
Cn1cc(C2=C(c3ccc(Cl)cc3Cl)C(=O)NC2=O)c2ccccc21 [SB216763] | – | – | – | – | – | – | 46% | −24% | −15% | –
CC(C)[C@H](CO)Nc1nc(Nc2cccc(Cl)c2)c2ncn(C(C)C)c2n1 [Purvalanol A] | 33% | 15% | 24% | – | – | – | – | – | – | –
CC(C)CCC[C@@H](C)[C@H]1CC[C@H]2[C@@H]3CCC4=CC(=NO)CC[C@]4(C)[C@H]3CC[C@]12C [TRO 19622] | – | – | – | – | – | – | – | – | – | percent rescue from sAβ42s toxicity at 3.13 µM [4]: 34%; percent rescue from sAβ42s toxicity at 3.13 µM [5]: -25%; percent rescue from sAβ42s toxicity at 3.13 µM [6]: -10%; percent rescue from sAβ42s toxicity at 12.5 µM [7]: 33%; percent rescue from sAβ42s toxicity at 12.5 µM [8]: -36%; percent rescue from sAβ42s toxicity at 12.5 µM [9]: -13%
O=C(NOC[C@H](O)CO)c1ccc(F)c(F)c1Nc1ccc(I)cc1F [PD0325901] | – | – | – | – | – | – | – | – | – | percent rescue from sAβ42s toxicity at 0.78 µM [10]: 48%; percent rescue from sAβ42s toxicity at 0.78 µM [11]: 19%; percent rescue from sAβ42s toxicity at 0.78 µM [12]: 15%; percent rescue from sAβ42s toxicity at 3.13 µM [4]: 52%; percent rescue from sAβ42s toxicity at 3.13 µM [5]: 23%; percent rescue from sAβ42s toxicity at 3.13 µM [6]: 21%; percent rescue from sAβ42s toxicity at 12.5 µM [7]: 43%; percent rescue from sAβ42s toxicity at 12.5 µM [8]: 8%; percent rescue from sAβ42s toxicity at 12.5 µM [9]: 8%; percent rescue from sAβ42s toxicity at 50 µM [1]: 59%; percent rescue from sAβ42s toxicity at 50 µM [2]: 27%; percent rescue from sAβ42s toxicity at 50 µM [3]: 27%
Cn1cnc2c(NCc3ccccc3)nc(NCCO)nc21 [Olomoucine] | – | – | – | – | – | – | – | – | – | percent rescue from sAβ42s toxicity at 50 µM [1]: 69%; percent rescue from sAβ42s toxicity at 50 µM [2]: -8%; percent rescue from sAβ42s toxicity at 50 µM [3]: -15%
COc1cc([C@@H]2c3cc4c(cc3[C@@H](O[C@@H]3O[C@@H]5CO[C@@H](c6cccs6)O[C@H]5[C@H](O)[C@H]3O)[C@H]3COC(=O)[C@H]23)OCO4)cc(OC)c1O [Teniposide] | – | – | – | – | – | – | – | – | – | percent rescue from sAβ42s toxicity at 0.78 µM [10]: 35%; percent rescue from sAβ42s toxicity at 0.78 µM [11]: -7%; percent rescue from sAβ42s toxicity at 0.78 µM [12]: 1%; percent rescue from sAβ42s toxicity at 3.13 µM [4]: 42%; percent rescue from sAβ42s toxicity at 3.13 µM [5]: -10%; percent rescue from sAβ42s toxicity at 3.13 µM [6]: 5%; percent rescue from sAβ42s toxicity at 12.5 µM [7]: 50%; percent rescue from sAβ42s toxicity at 12.5 µM [8]: -17%; percent rescue from sAβ42s toxicity at 12.5 µM [9]: 3%; percent rescue from sAβ42s toxicity at 50 µM [1]: 52%; percent rescue from sAβ42s toxicity at 50 µM [2]: -19%; percent rescue from sAβ42s toxicity at 50 µM [3]: 3%
OC(CNc1ccccc1)Cn1c2ccc(Br)cc2c2cc(Br)ccc21 (stereo not drawn) [P7C3] | 30% | 2% | 3% | – | – | – | 43% | −8% | 2% | –
Lycorine hydrochloride | 77% | 99% | 80% | 83% | 93% | 77% | 79% | 88% | 75% | % B3T rescue (0.78 μM compound): 37%; % MAP2 rescue (0.78 μM compound): 57%; % Synapse rescue (0.78 μM compound): 43%
Cc1c[nH]c(-c2cnc(NCCNc3ccc(C#N)cn3)nc2-c2ccc(Cl)cc2Cl)n1 [CHIR 99021 trihydrochloride] | – | – | – | – | – | – | – | – | – | percent rescue from sAβ42s toxicity at 50 µM [1]: 66%; percent rescue from sAβ42s toxicity at 50 µM [2]: 58%; percent rescue from sAβ42s toxicity at 50 µM [3]: 46%
CC(/C=C/C(=O)NO)=C\[C@@H](C)C(=O)c1ccc(N(C)C)cc1 [Trichostatin A] | – | – | – | 31% | −18% | 2% | 41% | −13% | 1% | –
Oc1cc(O)c2c(c1)O[C@H](c1ccc(O)c(O)c1)[C@H](O)C2 [Epicatechin] | – | – | – | – | – | – | – | – | – | percent rescue from sAβ42s toxicity at 50 µM [1]: 30%; percent rescue from sAβ42s toxicity at 50 µM [2]: 28%; percent rescue from sAβ42s toxicity at 50 µM [3]: 20%
CCCCCCCCCCCCCCCCCC(=O)NCCc1ccc(O)c(O)c1 [STEARDA] | 33% | 28% | 24% | 33% | 24% | 21% | – | – | – | % B3T rescue (0.78 μM compound): 27%; % MAP2 rescue (0.78 μM compound): 30%; % Synapse rescue (0.78 μM compound): 24%
Oc1ccc(C=Cc2cc(O)cc(O)c2)cc1 [Resveratrol] | – | – | – | – | – | – | – | – | – | percent rescue from sAβ42s toxicity at 0.78 µM [10]: 27%; percent rescue from sAβ42s toxicity at 0.78 µM [11]: 33%; percent rescue from sAβ42s toxicity at 0.78 µM [12]: 24%; percent rescue from sAβ42s toxicity at 3.13 µM [4]: 30%; percent rescue from sAβ42s toxicity at 3.13 µM [5]: 33%; percent rescue from sAβ42s toxicity at 3.13 µM [6]: 27%; percent rescue from sAβ42s toxicity at 12.5 µM [7]: 54%; percent rescue from sAβ42s toxicity at 12.5 µM [8]: 57%; percent rescue from sAβ42s toxicity at 12.5 µM [9]: 49%; percent rescue from sAβ42s toxicity at 50 µM [1]: 78%; percent rescue from sAβ42s toxicity at 50 µM [2]: 84%; percent rescue from sAβ42s toxicity at 50 µM [3]: 78%
Oc1cc2c(cc1O)CN(C(=S)NCCc1ccc(Cl)cc1)CCC2 [Capsazepine] | – | – | – | – | – | – | – | – | – | percent rescue from sAβ42s toxicity at 12.5 µM [7]: 50%; percent rescue from sAβ42s toxicity at 12.5 µM [8]: 44%; percent rescue from sAβ42s toxicity at 12.5 µM [9]: 44%
Cc1[nH]c(/C=C2\C(=O)Nc3ccccc32)c(C)c1CCC(=O)O [SU 6668] | 34% | 31% | 26% | – | – | – | 77% | 80% | 75% | –
CCOC(=O)c1ccc(N(C)c2csc(-c3ccccc3)n2)cc1 [Neuropathiazol] | – | – | – | 35% | 44% | 42% | 35% | 27% | 28% | –
C=CC[C@@H]1/C=C(\C)C[C@H](C)C[C@H](OC)[C@H]2O[C@@](O)(C(=O)C(=O)N3CCCC[C@H]3C(=O)O[C@H](/C(C)=C/[C@@H]3CC[C@@H](O)[C@H](OC)C3)[C@H](C)[C@@H](O)CC1=O)[C@H](C)C[C@@H]2OC [FK 506] | – | – | – | – | – | – | – | – | – | percent rescue from sAβ42s toxicity at 12.5 µM [7]: 52%; percent rescue from sAβ42s toxicity at 12.5 µM [8]: 34%; percent rescue from sAβ42s toxicity at 12.5 µM [9]: 34%
COc1ccc(S(=O)(=O)NCCCC(=O)Nc2ccc(Sc3ccc(N)cc3)cc2)cc1 [BI-6C9] | – | – | – | – | – | – | 65% | 58% | 55% | –
Cc1c(C)c(NCC(=O)N(C)C2CCN(Cc3ccc(C(N)=O)cc3)CC2)c(C)c(C)c1N [sun11602] | 33% | 10% | 11% | 43% | 19% | 15% | 47% | 14% | 11% | –
CCCn1c(C)c(C(=O)c2cccc3ccccc23)c2ccccc21 [JWH 015] | – | – | – | 60% | 50% | 43% | 42% | 38% | 26% | –
